The source of these data is ChEMBL document CHEMBL4229354, “Synthesis, antiamoebic activity and docking studies of metronidazole-triazole-styryl hybrids” (Eur J Med Chem, 2018).

The test system of one data set is Entamoeba histolytica. The data set is described as follows: Antiamoebic activity against trophozoite stage of Entamoeba histolytica HM-1:IMSS measured after 72 hrs by microdilution method. The data set is classed as functional, organism-based.
The test system of the next data set is Vero. Description: Cytotoxicity against African green monkey Vero cells up to 50 uM. The data set is classed as cell-based. The conditions noted are these: chlorocebus sabaeus.

As usually defined, the IC50 is the concentration that gives 50% inhibition.

`Cc1ccc(/C=C/c2ncc([N+](=O)[O-])n2CCn2cc(CO)nn2)cc1`: the IC50 with Entamoeba histolytica came to 2130 nM.
In the data set on Entamoeba histolytica, `O=[N+]([O-])c1cnc(/C=C/c2ccc(Cl)cc2)n1CCn1cc(COc2ccccc2)nn1` registered a half-maximal inhibitory concentration (IC50) of 350 nM. The Activity entry in the data set with Vero was “Non-Toxic”.
`CCc1ccc(/C=C/c2ncc([N+](=O)[O-])n2CCn2cc(-c3ccccc3)nn2)cc1`: the IC50 with Entamoeba histolytica is 4680 nM.
With `O=[N+]([O-])c1cnc(/C=C/c2ccc(Cl)cc2)n1CCn1cc(CO)nn1`, it took 1110 nM to reach half-maximal inhibition in the data set on Entamoeba histolytica (IC50). Also, in the data set on Vero, the Activity entry is given as “Non-Toxic”.
In the same order, the values of `O=[N+]([O-])c1cnc(/C=C/c2ccc(F)cc2)n1CCn1cc(COc2ccccc2)nn1` are 280 nM and “Non-Toxic”.
In the data set on Entamoeba histolytica, `CCc1ccc(/C=C/c2ncc([N+](=O)[O-])n2CCn2cc(CO)nn2)cc1` displayed an IC50 of 4180 nM.
The same measure, in the same setting: in the case of `O=[N+]([O-])c1cnc(/C=C/c2ccc(Br)cc2)n1CCn1cc(CO)nn1` it was 1650 nM.
Same read-out and setting: in the case of `Cc1ccc(/C=C/c2ncc([N+](=O)[O-])n2CCn2cc(-c3ccccc3)nn2)cc1` it was 2510 nM; in that of `O=[N+]([O-])c1cnc(/C=C/c2ccc(Br)cc2)n1CCn1cc(COc2ccccc2)nn1`, 1680 nM.
In the case of `O=[N+]([O-])c1cnc(/C=C/c2ccc(F)cc2)n1CCn1cc(-c2ccccn2)nn1`, the concentration for half-maximal inhibition (IC50) with Entamoeba histolytica turned out to be 130 nM. Moreover, the Activity entry in the data set with Vero is on record as “Non-Toxic”.
On to `O=[N+]([O-])c1cnc(/C=C/c2ccccc2)n1CCn1cc(-c2ccccn2)nn1`, for which it took 5130 nM to reach half-maximal inhibition in the data set with Entamoeba histolytica (IC50).
`O=[N+]([O-])c1cnc(/C=C/c2ccc(F)cc2)n1CCn1cc(CO)nn1` gave an IC50 in the data set on Entamoeba histolytica of 180 nM. The Activity entry in the data set on Vero is listed as “Non-Toxic”.
In the case of `Cc1ccc(/C=C/c2ncc([N+](=O)[O-])n2CCn2cc(COc3ccccc3)nn2)cc1`, the IC50 in the data set with Entamoeba histolytica stood at 5380 nM.
Turning to `O=[N+]([O-])c1cnc(/C=C/c2ccc(Cl)cc2)n1CCn1cc(-c2ccccc2)nn1`, 1220 nM corresponded to half-maximal inhibition in the data set with Entamoeba histolytica (IC50). Further, the Activity result in the data set on Vero is “Non-Toxic”.
On to `O=[N+]([O-])c1cnc(/C=C/c2ccc(Br)cc2)n1CCn1cc(-c2ccccc2)nn1`, for which inhibition in the data set with Entamoeba histolytica was half-maximal at 1770 nM (IC50).
As for `O=[N+]([O-])c1cnc(/C=C/c2ccc(Br)cc2)n1CCn1cc(-c2ccccn2)nn1`, the IC50 in the data set on Entamoeba histolytica worked out at 1100 nM. The Activity result with Vero is “Non-Toxic”.
Taken in the same sequence, the figures for `O=[N+]([O-])c1cnc(/C=C/c2ccccc2)n1CCn1cc(CO)nn1` were 1120 nM and “Non-Toxic”.
In the same order, the values of `O=[N+]([O-])c1cnc(/C=C/c2ccc(Cl)cc2)n1CCn1cc(-c2ccccn2)nn1` are 290 nM and “Non-Toxic”.
Taken in the same sequence, the figures for `O=[N+]([O-])c1cnc(/C=C/c2ccc(F)cc2)n1CCn1cc(-c2ccccc2)nn1` were 120 nM and “Non-Toxic”.
As for `O=[N+]([O-])c1cnc(/C=C/c2ccccc2)n1CCn1cc(-c2ccccc2)nn1`, the IC50 in the data set with Entamoeba histolytica came out at 1350 nM. Moreover, the Activity result in the data set with Vero is given as “Non-Toxic”.
In the case of `O=[N+]([O-])c1cnc(/C=C/c2ccccc2)n1CCn1cc(COc2ccccc2)nn1`, in the data set on Entamoeba histolytica, the IC50 is 3560 nM.
Still for that read-out and setting: to `Cc1ccc(/C=C/c2ncc([N+](=O)[O-])n2CCn2cc(-c3ccccn3)nn2)cc1` belongs 6010 nM.
